Results from patent US6737383B1, “Herbicidal oxadiazolidines” (priority 1999, dated 2004).

Assays:
[1] = test system: bedstraw; assay: Test B pre/postemergence bedstraw; type: in vivo, Galium aparine
Procedure, shortened: (§1)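 Response is a visual 0-to-10 score relative to untreated plants, where 0 means no effect and 10 means complete control, taken twelve to sixteen days after application. Treatments went onto soil at planting and onto foliage of 1- to 4-leaf plants, using a surfactant-containing non-phytotoxic solvent.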

[2] = test system: blackgrass; assay: Test B pre/postemergence blackgrass; type: in vivo, Alopecurus myosuroides
Procedure, shortened: as §1

[3] = test system: surinam grass; assay: Test B pre/postemergence surinam grass; type: in vivo, Brachiaria decumbens
Procedure, shortened: as §1

[4] = test system: cocklebur; assay: Test B pre/postemergence cocklebur; type: in vivo, Xanthium strumarium
Procedure, shortened: as §1

[5] = test system: corn; assay: Test B pre/postemergence corn; type: in vivo, Zea mays
Procedure, shortened: as §1

[6] = test system: giant foxtail; assay: Test B pre/postemergence giant foxtail; type: in vivo, Setaria faberii
Procedure, shortened: as §1

[7] = test system: morningglory; assay: Test B pre/postemergence morningglory; type: in vivo, Ipomoea hederacea
Procedure, shortened: as §1

[8] = test system: pigweed; assay: Test B pre/postemergence pigweed; type: in vivo, Amaranthus retroflexus
Procedure, shortened: as §1

[9] = test system: rape; assay: Test B pre/postemergence rape; type: in vivo, Brassica napus
Procedure, shortened: as §1

[10] = test system: soybean; assay: Test B pre/postemergence soybean; type: in vivo, Glycine max
Procedure, shortened: as §1

[11] = test system: sugar beet; assay: Test B pre/postemergence sugar beet; type: in vivo, Beta vulgaris
Procedure, shortened: as §1

[12] = test system: velvetleaf; assay: Test B pre/postemergence velvetleaf; type: in vivo, Abutilon theophrasti
Procedure, shortened: as §1

[13] = test system: purple nutsedge; assay: Test B pre/postemergence purple nutsedge; type: in vivo, Cyperus rotundus
Procedure, shortened: as §1

[14] = test system: smallflower flatsedge; assay: Test B flood test smallflower flatsedge; type: in vivo, Cyperus difformis
Procedure, shortened: (§2)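 Each value is a visual injury score relative to controls, with 10 meaning complete control and 0 no effect. Evaluation took place twelve to sixteen days after the 2-leaf-stage plants were treated and kept in the greenhouse.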

[15] = test system: duck salad; assay: Test B flood test duck salad; type: in vivo, Heteranthera limosa
Procedure, shortened: as §2

[16] = test system: bamyardgrass; assay: Test B flood test barnyardgrass; type: in vivo, Echinochloa crus-galli
Procedure, shortened: as §2

[17] = Postemergence, Rate 125 g/ha, scale of 0 to 10 where 0 is no effect and 10 is complete control
[18] = Preemergence, Rate 125 g/ha, 0 is no effect, 10 is complete control
[19] = Preemergence, Rate 250 g/ha, scale 0 to 10, 0 is no effect, 10 is complete control
[20] = Preemergence, Rate 500 g/ha, scale 0 to 10 (0 no effect, 10 complete control)
[21] = Rate 62 g/ha, Postemergence, scale of 0 to 10 where 0 is no effect and 10 is complete control
[22] = Rate 250 g/ha, Postemergence, scale 0 to 10, 0 is no effect, 10 is complete control
[23] = Preemergence, Rate 62 g/ha, scale 0 to 10 (0 no effect, 10 complete control)
[24] = Rate 500 g/ha, Postemergence, scale 0 to 10
[25] = Postemergence (flood test species), Rate 125 g/ha, scale of 0 to 10 where 0 is no effect and 10 is complete control
[26] = Rate 62 g/ha, Postemergence section, flood test species, scale of 0 to 10 where 0 is no effect and 10 is complete control
[27] = Rate 250 g/ha, Postemergence (flood test), scale 0 to 10, 0 is no effect, 10 is complete control
[28] = Rate 500 g/ha, listed under Postemergence (flood test species), scale 0 to 10

Structure (SMILES): CC(C)c1noc(C(C)C)c1-n1c(=O)on(C(=O)N(c2ccc(F)cc2)C(C)C)c1=O [Compound 135]
- Bedstraw plant response rating [1, 17]: 0
- Bedstraw plant response rating (0 to 10 scale) [1, 18]: 0
- Bedstraw plant response rating [1, 19]: 0
- Bedstraw plant response rating [1, 20]: 4
- Bedstraw plant response rating [1, 21]: 0
- Plant response rating, Bedstraw [1, 22]: 2
- Blackgrass plant response rating [2, 17]: 0
- Blackgrass plant response rating [2, 23]: 0
- Blackgrass plant response rating (0 to 10 scale) [2, 18]: 0
- Blackgrass plant response rating [2, 19]: 0
- Blackgrass plant response rating [2, 20]: 4
- Blackgrass plant response rating [2, 21]: 0
- Plant response rating, Blackgrass [2, 22]: 0
- Blackgrass plant response rating [2, 24]: 0
- B. signalgrass plant response rating [3, 17]: 0
- B. signalgrass plant response rating [3, 23]: 0
- B. signalgrass plant response rating (0 to 10 scale) [3, 18]: 0
- B. signalgrass plant response rating [3, 19]: 3
- B. signalgrass plant response rating [3, 20]: 4
- B. signalgrass plant response rating [3, 21]: 0
- Plant response rating, B. signalgrass [3, 22]: 0
- B. signalgrass plant response rating ([3]; Rate 500 g/ha, Postemergence, scale of 0 to 10 where 0 is no effect and 10 is complete control): 0
- Cocklebur plant response rating [4, 17]: 0
- Cocklebur plant response rating [4, 23]: 0
- Cocklebur plant response rating (0 to 10 scale) [4, 18]: 0
- Cocklebur plant response rating [4, 19]: 0
- Cocklebur plant response rating [4, 20]: 0
- Cocklebur plant response rating [4, 21]: 0
- Plant response rating, Cocklebur [4, 22]: 0
- Cocklebur plant response rating [4, 24]: 0
- Corn plant response rating [5, 17]: 0
- Corn plant response rating [5, 23]: 0
- Corn plant response rating (0 to 10 scale) [5, 18]: 0
- Corn plant response rating [5, 19]: 0
- Corn plant response rating [5, 20]: 0
- Corn plant response rating [5, 21]: 0
- Plant response rating, Corn [5, 22]: 0
- Corn plant response rating [5, 24]: 0
- Giant foxtail plant response rating [6, 17]: 0
- Giant foxtail plant response rating [6, 23]: 0
- Giant foxtail plant response rating (0 to 10 scale) [6, 18]: 0
- Giant foxtail plant response rating [6, 19]: 0
- Giant foxtail plant response rating [6, 21]: 0
- Plant response rating, Giant foxtail [6, 22]: 0
- Giant foxtail plant response rating [6, 24]: 0
- Morningglory plant response rating [7, 17]: 1
- Morningglory plant response rating [7, 23]: 0
- Morningglory plant response rating (0 to 10 scale) [7, 18]: 0
- Morningglory plant response rating [7, 19]: 0
- Morningglory plant response rating [7, 20]: 0
- Morningglory plant response rating [7, 21]: 0
- Plant response rating, Morningglory [7, 22]: 1
- Morningglory plant response rating [7, 24]: 1
- Redroot pigweed plant response rating [8, 17]: 0
- Redroot pigweed plant response rating (0 to 10 scale) [8, 18]: 3
- Redroot pigweed plant response rating [8, 19]: 4
- Redroot pigweed plant response rating [8, 20]: 4
- Redroot pigweed plant response rating [8, 21]: 0
- Plant response rating, Redroot pigweed [8, 22]: 0
- Redroot pigweed plant response rating [8, 24]: 0
- Rape plant response rating [9, 17]: 0
- Rape plant response rating [9, 23]: 0
- Rape plant response rating (0 to 10 scale) [9, 18]: 0
- Rape plant response rating [9, 19]: 0
- Rape plant response rating [9, 20]: 0
- Rape plant response rating [9, 21]: 0
- Plant response rating, Rape [9, 22]: 0
- Rape plant response rating [9, 24]: 0
- Soybean plant response rating [10, 17]: 2
- Soybean plant response rating [10, 23]: 0
- Soybean plant response rating (0 to 10 scale) [10, 18]: 0
- Soybean plant response rating [10, 19]: 0
- Soybean plant response rating [10, 20]: 0
- Soybean plant response rating [10, 21]: 2
- Plant response rating, Soybean [10, 22]: 3
- Soybean plant response rating [10, 24]: 3
- Sugarbeets plant response rating [11, 17]: 0
- Sugarbeets plant response rating [11, 23]: 0
- Sugarbeets plant response rating (0 to 10 scale) [11, 18]: 0
- Sugarbeets plant response rating [11, 19]: 0
- Sugarbeets plant response rating [11, 20]: 0
- Sugarbeets plant response rating [11, 21]: 0
- Plant response rating, Sugarbeets [11, 22]: 0
- Sugarbeets plant response rating [11, 24]: 0
- Velvetleaf plant response rating [12, 17]: 0
- Velvetleaf plant response rating [12, 23]: 0
- Velvetleaf plant response rating (0 to 10 scale) [12, 18]: 0
- Velvetleaf plant response rating [12, 19]: 0
- Velvetleaf plant response rating [12, 20]: 0
- Velvetleaf plant response rating [12, 21]: 0
- Plant response rating, Velvetleaf [12, 22]: 0
- Velvetleaf plant response rating [12, 24]: 0
- Nutsedge plant response rating [13, 17]: 0
- Nutsedge plant response rating [13, 23]: 0
- Nutsedge plant response rating (0 to 10 scale) [13, 18]: 0
- Nutsedge plant response rating [13, 19]: 0
- Nutsedge plant response rating [13, 20]: 0
- Nutsedge plant response rating [13, 21]: 0
- Plant response rating, Nutsedge [13, 22]: 0
- Nutsedge plant response rating [13, 24]: 0
- S. Flatsedge plant response rating [14, 25]: 0
- S. Flatsedge plant response rating [14, 26]: 0
- Plant response rating, S. Flatsedge [14, 27]: 0
- S. Flatsedge plant response rating [14, 28]: 0
- Ducksalad plant response rating [15, 25]: 0
- Ducksalad plant response rating [15, 26]: 0
- Plant response rating, Ducksalad [15, 27]: 0
- Ducksalad plant response rating [15, 28]: 0
- Barnyardgrass plant response rating [16, 25]: 0
- Barnyardgrass plant response rating [16, 26]: 0
- Plant response rating, Barnyardgrass [16, 27]: 0
- Barnyardgrass plant response rating ([16]; Rate 500 g/ha, listed under Postemergence (flood test species), scale 0 to 10, 0 no effect, 10 complete control): 0
